Experimental data: US7176234B2, “Derivatives of gambogic acid and analogs as activators of caspases and inducers of apoptosis” (priority 2002, dated 2007)
pEC50: −log10 of the molar value. Where two headings read alike, the source gives them in different places.

Tests used:
[1] = Conversion of methyl 9,10-dihydro-10-morpholinyl-gambogate to methyl gambogate in biological media (HPLC); assay type: physicochemical; conditions: solution of compound B 5 mg/ml in 87.5% RPMI 1640, 37° C., HPLC peak area
Protocol: A solution of methyl 9,10-dihydro-10-morpholinyl-gambogate in 87.5% RPMI 1640 biological Media (Invitrogen Corporation, Carlsbad, Calif.), 5.6% EtOH, 1.3% DMSO, and 5.6% Cremophor EL at a concentration of 5 mg/ml was stored at 37° C. The amount of methyl 9,10-dihydro-10-morpholinyl-gambogate (compound B) and methyl gambogate (compound C) was measured by integration of the peak area. The HPLC was run in the Beckman System Gold with 32 Karate software under the following conditions: […]

ZR75-1 (Breast cancer) = assay: Efficacy in human tumor xenograft mouse model ZR75-1; assay type: in vivo, human tumor in CD1 nu/nu mice; conditions: ZR75-1 xenograft, 5 mg/kg, every other day, I.V.
Protocol: (§1) CD1 nu/nu mice were used. Viable tumor bits of transplantable human xenografts approximately 50 mg of trocar or cultured human tumor cells (nx106 cells?) were implanted subcutaneously into the flank region of mice and tumors were allowed to grow to the desired average size of 100 mg. The mice were measured for tumor size and those within the accepted tumor range of 75–125 mg, were randomized into control and treatment groups with 8–9 mice per group. Treatment was initiated on these groups which have an average starting tumor size of 100 mg. The control group was injected with the vehicle used to dissolve the drug. Injections were I.V. via the tail vein. Tumor measurements were taken every other day along with weights of animals and all animals were observed daily for survival. Tumor size was calculated by the equation of: Tumor volume=(length×width^2)/2.

ICR (CD-1) mice = assay: Maximum tolerated dose (MTD) in mice, I.V.; assay type: in vivo; conditions: mice
Protocol: For acute toxicity studies, 3 ICR (CD-1) mice were used per each dose group. Animals were given a single bolus injection in the tail vein with approximately 100 μl volume of compound formulation or vehicle formulation. Mice body weights were measured daily along with daily observation for clinical abnormalities. The maximum tolerated dose (MTD) was defined as the dose that results in less than 10% decrease in body weight with no clinical abnormalities.
For multiple dose studies, the animals were dosed once a day for 5 days.
Table IV summarizes the MTD of gambogic acid and methyl 9,10-dihydro-10-morpholinyl-gambogate in mice by I.V. administration.

T-47D = assay: Caspase cascade activation / apoptosis induction assay (N-(Ac-DEVD)-N'-ethoxycarbonyl-R110 substrate) in T-47D cells; assay type: cell-based, Human; conditions: for Caspase activity (Ratio): ratio of net RFU to control
Protocol: (§2) Human breast cancer cell lines T-47D and ZR-75-1 were grown according to media component mixtures designated by American Type Culture Collection+10% FCS (Invitrogen Corporation), in a 5% CO2-95% humidity incubator at 37° C. T-47D and ZR-75-1 cells were maintained at a cell density between 30 and 80% confluency and for HL-60 at a cell density of 0.1 to 0.6×10^6 cells/ml. Cells were harvested at 600×g and resuspended at 0.65×10^6 cells/mL into appropriate media+10% FCS. An aliquot of 45 μl of cells was added to a well of a 96-well microtiter plate containing 5 μl of a 10% DMSO in RPMI-1640 media solution containing 1.6 to 100 μM of gambogic acid or other test compound (0.16 to 10 μM final). An aliquot of 45 μl of cells was added to a well of a 96-well microtiter plate containing […] of a 10% DMSO in RPMI-1640 media solution without test compound as the control sample. The samples were mixed by agitation and then incubated at 37° C. for 24 h in a 5% CO2-95% humidity incubator. After incubation, the samples were removed from the incubator and 50 μl of a solution containing 20 μM of N-(Ac-DEVD)-N′-ethoxycarbonyl-R110 fluorogenic substrate SEQ ID NO:1 (Cytovia, Inc.; U.S. Pat. No. 6,335,429), 20% sucrose (Sigma), 20 mM DTT (Sigma), 200 mM NaCl (Sigma), 40 mM Na PIPES buffer pH 7.2 (Sigma), and 500 μg/mL lysolecithin (Calbiochem) was added. The samples were mixed by agitation and incubated at room temperature. Using a fluorescent plate reader (Model 1420 Wallac Instruments), an initial reading (T=0) was made approximately 1–2 min after addition of the substrate solution, employing excitation at 485 nm and emission at 530 nm, to determine the background fluorescence of the control sample. After approximately 3 h of incubation, the samples were read for fluorescence as above (T=3 h).
(§3) The Relative Fluorescence Unit values (RFU) were used to calculate the sample readings as follows: RFU(T=3h)−Control RFU(T=0)=Net RFU(T=3h)
(§4) The activity of caspase cascade activation was determined by the ratio of the net RFU value for derivatives of gambogic acid to that of control samples. The EC50 (nM) was determined by a sigmoidal dose-response calculation (Prism 2.0, GraphPad Software Inc.).
Methyl 9,10-dihydro-10-morpholinyl-gambogate and gambogic acid were assayed as described in Example 28 in T47D cells. The samples of cells and testing compound were incubated for 5 h and 24 h, respectively. Table II summarizes the caspase activity (Ratio) and potency (EC50) of methyl 9,10-dihydro-10-morpholinyl-gambogate (compound B) in the 5 h and 24 h assays, in comparison with that of gambogic acid (compound A).

KB cell line = conditions: cited from earlier work
HeLa cells = conditions: cited from earlier work
KB-V1 cell line = conditions: cited from earlier work
[2] = Pharmacokinetic studies in mice (plasma, LC/MS/MS); assay type: in vivo, ICR mice
Protocol: ICR mice were administered a single dose of drug into the tail vein. At each time point, 3 animals were sacrificed and the blood was withdrawn by cardiac puncture. The blood cells were spun down and the plasma was collected and frozen immediately in liquid nitrogen. For sample processing, the plasma was thawed and extraction solvent was added along with an internal standard to assess recoveries. The samples were vortexed followed by centrifugation, and the extraction solution was collected and subjected to LC/MS/MS analysis to identify and quantitate the compound plasma concentration. The levels of compound from the three animals at each time point were averaged and the pharmacokinetic parameters calculated using WinNonLin program. Table V summarized the major PK parameters.

HEL cells = conditions: cited from earlier work
[3] = system: human tumor xenograft models; assay: Efficacy studies in human tumor xenograft models (text summary, model not named); assay type: in vivo, human tumor in nu/nu mice
Protocol: as §1

ZR-75-1 = assay: Caspase cascade activation / apoptosis induction assay (N-(Ac-DEVD)-N'-ethoxycarbonyl-R110 substrate) in ZR-75-1 cells; assay type: cell-based, Human; conditions: ZR-75-1, 24 h incubation; for Caspase activity (Ratio): ratio of net RFU to control; for pEC50: read-out: Caspase potency EC50
Protocol: as §2, §3, §4

[4] = T-47D, 24 h incubation, read-out: Caspase potency EC50

COC(=O)/C(C)=C\C[C@@]12OC(C)(C)[C@@H]3C[C@@H](C=C4C(=O)c5c(O)c6c(c(CC=C(C)C)c5O[C@]431)O[C@](C)(CCC=C(C)C)C=C6)C2=O [C, Methyl gambogate]
Amount in biological media, 0 h ([1]; 0 h): 4 | Amount in biological media, 2 h ([1]; 2 h): 3 | Amount in biological media, 18 h ([1]; 18 h): 26 | Amount in biological media, 48 h ([1]; 48 h): 48 | Amount in biological media, 90 h ([1]; 90 h): 64

CC(C)=CCC[C@]1(C)C=Cc2c(O)c3c(c(CC=C(C)C)c2O1)O[C@]12C(=C[C@@H]4C[C@H]1C(C)(C)O[C@@]2(C/C=C(/C)C(=O)O)C4=O)C3=O [Compound A, Gambogic acid]
% Tumor reduction (ZR75-1 (Breast cancer)): 20% | Multiple Dose MTD (ICR (CD-1) mice; I.V., once a day, 5 doses): 5 mg/kg | Injection site toxicity (ICR (CD-1) mice; tail vein injection): evidence of injection site toxicity, such as tail edema | Activity in the caspase activation / apoptosis induction assay (in words), 5 h (T-47D; T47D cells, 5 h assay): active | Caspase activity (Ratio), 5 h (T-47D; T47D cells, 5 h assay): 29.5 | pEC50 (T-47D; T47D cells, 5 h assay, read-out: Caspase potency EC50, 5 h): 5.76 | Activity in the caspase activation / apoptosis induction assay (in words), 24 h (T-47D; T47D cells, 24 h assay): active | Caspase activity (Ratio), 24 h (T-47D; T47D cells, 24 h assay): 12.1 | pEC50 (T-47D; T47D cells, 24 h assay, read-out: Caspase potency EC50, 24 h): 6.15 | Cytotoxicity (KB cell line): cytotoxic | Cytotoxicity (HeLa cells): cytotoxic | Cytotoxicity (KB-V1 cell line): cytotoxic | T1/2, Terminal half-life ([2]; mice, single I.V. dose 5 mg/kg): 4.8 h | AUC (0-inf), Area under the curve ([2]; mouse, in vivo, iv, 5 mg/kg): 2,700 ng-h/ml | CL, Clearance ([2]; mouse, in vivo, iv, 5 mg/kg): 30.7 mL/min/kg | Vss, Vol. of distribution ([2]; mouse, in vivo, iv, 5 mg/kg): 2.9 L/kg | Cytotoxicity (HEL cells): cytotoxic | Best efficacy, tumor growth inhibition ([3]; human tumor cells s.c. in nu/nu mice, at doses that were toxic, not statistically significant): approximately 20% | Efficacy (in words) ([3]; summary of Table VI, gambogic acid at its maximal tolerable dose): did not produce significant efficacy

CC(C)=CCCC1(C)C=Cc2c(O)c3c(c(CC=C(C)C)c2O1)OC12C(C3=O)C(N3CCOCC3)C3CC1C(C)(C)OC2(C/C=C(/C)C(=O)N1CCN(C)CC1)C3=O (stereo not shown) [Example 4, 9,10-Dihydro-10-morpholinyl-gambogyl (N-Methylpiperazine)]
Caspase activity (Ratio) (ZR-75-1): 18 | pEC50 (ZR-75-1): 5.40 | Caspase activity (Ratio) (T-47D; T-47D, 24 h incubation): 19 | pEC50 (T-47D; [4]): 5.87

CC(C)=CCCC1(C)C=Cc2c(O)c3c(c(CC=C(C)C)c2O1)OC12C(C3=O)C(N3CCCCC3)C3CC1C(C)(C)OC2(C/C=C(/C)C(=O)N1CCN(C)CC1)C3=O (stereo not shown) [Example 5, 9,10-Dihydro-10-piperidinyl-gambogyl (N-Methylpiperazine)]
Caspase activity (Ratio) (ZR-75-1): 5.3 | pEC50 (ZR-75-1): 5.63 | Caspase activity (Ratio) (T-47D; T-47D, 24 h incubation): 23 | pEC50 (T-47D; [4]): 6.07

CC(C)=CCCC1(C)C=Cc2c(O)c3c(c(CC=C(C)C)c2O1)OC12C(C3=O)C(NCCN3CCOCC3)C3CC1C(C)(C)OC2(C/C=C(/C)C(=O)N1CCN(C)CC1)C3=O (stereo not shown) [Example 6, 9,10-Dihydro-10-[2-(morpholinyl)ethylamino]-gambogyl (N-Methylpiperazine)]
Caspase activity (Ratio) (ZR-75-1): 4.1 | pEC50 (ZR-75-1): 5.84 | Caspase activity (Ratio) (T-47D; T-47D, 24 h incubation): 17 | pEC50 (T-47D; [4]): 6.15

CC(C)=CCCC1(C)C=Cc2c(O)c3c(c(CC=C(C)C)c2O1)OC12C(C3=O)C(N3CCN(c4ccccn4)CC3)C3CC1C(C)(C)OC2(C/C=C(/C)C(=O)N1CCN(C)CC1)C3=O (stereo not shown) [Example 7, 9,10-Dihydro-10-[4-(2-pyridyl)piperazinyl]-gambogyl (N-Methylpiperazine)]
Caspase activity (Ratio) (ZR-75-1): 1.6 | pEC50 (ZR-75-1): < 5.00 | Caspase activity (Ratio) (T-47D; T-47D, 24 h incubation): 2.2 | pEC50 (T-47D; [4]): 6.22

CC(C)=CCCC1(C)C=Cc2c(O)c3c(c(CC=C(C)C)c2O1)OC12C(C3=O)C(OCCN(C)C)C3CC1C(C)(C)OC2(C/C=C(/C)C(=O)N1CCN(C)CC1)C3=O (stereo not shown) [Example 9, 9,10-Dihydro-10-(2-dimethylaminoethoxy)-gambogyl (N-Methylpiperazine)]
Caspase activity (Ratio) (ZR-75-1): 16 | pEC50 (ZR-75-1): 5.28 | Caspase activity (Ratio) (T-47D; T-47D, 24 h incubation): 15 | pEC50 (T-47D; [4]): 5.71

CC(C)=CCCC1(C)C=Cc2c(O)c3c(c(CC=C(C)C)c2O1)OC12C(C3=O)C(N3CCOCC3)C3CC1C(C)(C)OC2(C/C=C(/C)C(=O)N1CCOCC1)C3=O (stereo not shown) [Example 10, 9,10-Dihydro-10-morpholinyl-gambogyl Morpholine]
Caspase activity (Ratio) (ZR-75-1): 7.0 | pEC50 (ZR-75-1): 5.86 | Caspase activity (Ratio) (T-47D; T-47D, 24 h incubation): 23 | pEC50 (T-47D; [4]): 6.23

CC(C)=CCC[C@]1(C)C=Cc2c(O)c3c(c(CC=C(C)C)c2O1)O[C@]12C(=C[C@@H]4C[C@H]1C(C)(C)O[C@@]2(C/C=C(\C)C(=O)O)C4=O)C3=O [isogambogic acid]
Cytotoxicity (KB cell line): cytotoxic | Cytotoxicity (KB-V1 cell line): cytotoxic

CC(C)=CCc1c2c(c(O)c3c1OC14C(=CC5CC1C(C)(C)OC4(C/C=C(\C)CO)C5=O)C3=O)C=CC(C)(C)O2 (stereo not shown) [isomorellinol]
Cytotoxicity (KB cell line; KB cell line): cytotoxic | Cytotoxicity (KB-V1 cell line; KB-V1 cell line): cytotoxic
